Data published in PubChem BioAssay (NCI).
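GI50 is the concentration that inhibits growth by half. TGI denotes the concentration required for complete inhibition of growth.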

Tests used:
Test in all cases: NCI anticancer screen, dose series, 384-well format
[1] = test system: A498 renal
[2] = test system: A549 NSCLC
[3] = test system: ACHN renal
[4] = test system: BT-549 breast
[5] = test system: CAKI-1 renal
[6] = test system: CCRF-CEM leukemia
[7] = test system: COLO 205 colon
[8] = test system: DU-145 prostate
[9] = test system: EKVX NSCLC
[10] = test system: HCT-116 colon
[11] = test system: HCT-15 colon
[12] = test system: HL-60(TB) leukemia
[13] = test system: HOP-62 NSCLC
[14] = test system: HS 578T breast
[15] = test system: HT29 colon
[16] = test system: IGROV1 ovarian
[17] = test system: K-562 leukemia
[18] = test system: KM12 colon
[19] = test system: LOX IMVI melanoma
[20] = test system: M14 melanoma
[21] = test system: MALME-3M melanoma
[22] = test system: MCF7 breast
[23] = test system: MDA-MB-231 breast
[24] = test system: MDA-MB-435 melanoma
[25] = test system: MDA-MB-468 breast
[26] = test system: MOLT-4 leukemia
[27] = test system: NCI-H226 lung
[28] = test system: NCI-H23 lung
[29] = test system: NCI-H322M lung
[30] = test system: NCI-H460 NSCLC
[31] = test system: NCI-H522 lung
[32] = test system: NCI/ADR-RES ovarian
[33] = test system: OVCAR-3 ovarian
[34] = test system: OVCAR-4 ovarian
[35] = test system: PC-3 prostate
[36] = test system: RPMI-8226 leukemia
[37] = test system: RXF 393 renal
[38] = test system: SF-268 CNS
[39] = test system: SF-295 CNS
[40] = test system: SF-539 CNS
[41] = test system: SK-MEL-2 melanoma
[42] = test system: SK-MEL-28 melanoma
[43] = test system: SK-MEL-5 melanoma
[44] = test system: SK-OV-3 ovarian
[45] = test system: SN12C renal
[46] = test system: SNB-19 CNS
[47] = test system: SNB-75 CNS
[48] = test system: SR leukemia
[49] = test system: SW-620 colon
[50] = test system: T-47D breast
[51] = test system: TK-10 renal
[52] = test system: U251 glioblastoma
[53] = test system: UACC-257 melanoma
[54] = test system: UACC-62 melanoma

Work on `Cc1noc2c1-c1ccccc1C(c1ccc(Cl)cc1)=N[C@H]2CC(N)=O` yielded a GI50 [1] of 1.41 µM, a TGI [1] of 94.4 µM and a GI50 [2] of 10.3 µM. The TGI [2] was > 100 µM, the GI50 [3] was 11.5 µM and the TGI [3] was > 100 µM. For the same compound, the GI50 [4] was 0.292 µM, the TGI [4] was 18.7 µM and the GI50 [5] was 0.227 µM. The TGI [5] was 54.3 µM, the GI50 [6] was 0.629 µM and the TGI [6] was 22.9 µM. The GI50 [7] was 0.78 µM, the TGI [7] was 29 µM and the GI50 [8] was 23.6 µM. The TGI [8] was > 100 µM, the GI50 [9] was 36.2 µM and the TGI [9] was > 100 µM. The GI50 [10] was 13.5 µM, the TGI [10] was 54.7 µM and the GI50 [11] was 0.442 µM. It also gave a TGI [11] of 19.5 µM, a GI50 [12] of 0.102 µM and a TGI [12] of 0.229 µM. It also gave a GI50 [13] of 0.4 µM, a TGI [13] of 34.1 µM and a GI50 [14] of 0.292 µM. For the same compound, the TGI [14] was 28.3 µM, the GI50 [15] was 0.508 µM and the TGI [15] was 59.2 µM. It also gave a GI50 [16] of 0.564 µM, a TGI [16] of 30.1 µM and a GI50 [17] of 0.697 µM. It also gave a TGI [17] of 28 µM, a GI50 [18] of 6.93 µM and a TGI [18] of 44.3 µM. For the same compound, the GI50 [19] was 0.473 µM, the TGI [19] was 18.1 µM and the GI50 [20] was 13.6 µM. For the same compound, the TGI [20] was > 100 µM, the GI50 [21] was 16.4 µM and the TGI [21] was 61.4 µM. For the same compound, the GI50 [22] was 0.312 µM, the TGI [22] was 17 µM and the GI50 [23] was 0.612 µM. It also gave a TGI [23] of 94.4 µM, a GI50 [24] of 6.55 µM and a TGI [24] of 43.5 µM. For the same compound, the GI50 [25] was 0.685 µM, the TGI [25] was 23 µM and the GI50 [26] was 0.549 µM. The TGI [26] was 15.8 µM, the GI50 [27] was 12.2 µM and the TGI [27] was 44 µM. It also gave a GI50 [28] of 1.14 µM, a TGI [28] of 26.8 µM and a GI50 [29] of 3.01 µM. The TGI [29] was > 100 µM, the GI50 [30] was 19 µM and the TGI [30] was > 100 µM. For the same compound, the GI50 [31] was 0.04 µM, the TGI [31] was 0.455 µM and the GI50 [32] was 0.639 µM. It also gave a TGI [32] of 20.4 µM, a GI50 [33] of 0.812 µM and a TGI [33] of 29.8 µM. The GI50 [34] was 0.367 µM, the TGI [34] was 3.29 µM and the GI50 [35] was 0.723 µM. The TGI [35] was > 100 µM, the GI50 [36] was 0.298 µM and the TGI [36] was 12.5 µM. The GI50 [37] was 11.6 µM, the TGI [37] was 34.2 µM and the GI50 [38] was 18.1 µM. The TGI [38] was 67.7 µM, the GI50 [39] was 18.8 µM and the TGI [39] was > 100 µM. For the same compound, the GI50 [40] was 13 µM, the TGI [40] was > 100 µM and the GI50 [41] was 34.2 µM. The TGI [41] was 53.2 µM, the GI50 [42] was 21.4 µM and the TGI [42] was > 100 µM. It also gave a GI50 [43] of 1.03 µM, a TGI [43] of 21.3 µM and a GI50 [44] of 0.491 µM. The TGI [44] was 38.8 µM, the GI50 [45] was 24.2 µM and the TGI [45] was > 100 µM. For the same compound, the GI50 [46] was 4.91 µM, the TGI [46] was > 100 µM and the GI50 [47] was 15.7 µM. The TGI [47] was > 100 µM, the GI50 [48] was 0.0478 µM and the TGI [48] was 1.43 µM. For the same compound, the GI50 [49] was 21.8 µM, the TGI [49] was 71.7 µM and the GI50 [50] was 6.48 µM. For the same compound, the TGI [50] was 82 µM, the GI50 [51] was 0.504 µM and the TGI [51] was 34.3 µM. For the same compound, the GI50 [52] was 10.2 µM, the TGI [52] was > 100 µM and the GI50 [53] was 16.4 µM. The TGI [53] was > 100 µM, the GI50 [54] was 0.268 µM and the TGI [54] was 42.1 µM.
